Data published in ChEMBL document CHEMBL5726350, “Histone demethylase inhibitors” (2017).
pIC50: −log10 of the molar value.

What was measured:
[1] = target: Lysine-specific demethylase 5A (Homo sapiens, UniProt P29375); experiment: Enzymatic Assay: The enzymatic assay of Jarid1A activity is based upon Time Resolved-Fluorescence Resonance Energy Transfer (TR-FRET) detection. The ability of test compounds to inhibit the activity of Jarid1A was determined in 384-well plate format under the following reaction conditions: 1 nM Jarid1A, 300 nM H3K4me3-biotin labeled peptide (Anaspec cat #64357), 2 μM alpha-ketoglutaric acid in assay buffer of 50 mM HEPES, pH7.3, 0.005% Brij35, 0.5 mM TCEP, 0.2 mg/ml BSA, 50 μM sodium L-ascorbate, and 2 μM ammonium iron(II) sulfate. Reaction product was determined quantitatively by TR-FRET after the addition of detection reagent Phycolink Streptavidin-allophycocyanin (Prozyme) and Europium-anti-mono- or di-methylated histone H3 lysine 4 (H3K4me1-2) antibody (PerkinElmer) in the presence of 5 mM EDTA in LANCE detection buffer (PerkinElmer) at a final concentration of 25 nM and 1 nM, respectively.The assay reaction was initiated by the following: 2 μl of the mixture of 900 nM H3K4me3-biotin labeled peptide and 6 μM alpha-ketoglutaric acid with 2 μl of 11-point serial diluted inhibitor in 3% DMSO was added to each well of plate, followed by the addition of 2 μl of 3 nM Jarid1A to initiate the reaction.
[2] = target: T1, Lysine-specific demethylase 4C (Homo sapiens, UniProt Q9H3R0); experiment: Enzymatic Assay: The ability of test compounds to inhibit the activity of JMJD2C was determined in 384-well plate format under the following reaction conditions: 0.3 nM JMJD2C, 300 nM H3K9me3-biotin labeled peptide (Anaspec cat #64360), 2 μM alpha-ketoglutaric acid in assay buffer of 50 mM HEPES, pH7.3, 0.005% Brij35, 0.5 mM TCEP, 0.2 mg/ml BSA, 50 μM sodium L-ascorbate, and 2 μM ammonium iron(II) sulfate. Reaction product was determined quantitatively by TR-FRET after the addition of detection reagent Phycolink Streptavidin-allophycocyanin (Prozyme) and Europium-anti-di-methylated histone H3 lysine 9 (H3K9me2) antibody (PerkinElmer) in the presence of 5 mM EDTA in LANCE detection buffer (PerkinElmer) at a final concentration of 50 nM and 1 nM, respectively.The assay reaction was initiated by the following: 2 μl of the mixture of 900 nM H3K9me3-biotin labeled peptide and 6 μM alpha-ketoglutaric acid with 2 μl of 11-point serial diluted inhibitor in 3% DMSO were added to each well of the plate, followed by the addition of 2 μl of 0.9 nM JMJD2C to initiate the reaction. The reaction mixture was incubated at room temperature for 30 minutes, and terminated by the addition of 6 μl of 5 mM EDTA in LANCE detection buffer containing 100 nM Phycolink Streptavidin-allophycocyanin and 2 nM Europium-anti-H3K9me2 antibody. […]
T1 sequence (Q9H3R0 whole entry): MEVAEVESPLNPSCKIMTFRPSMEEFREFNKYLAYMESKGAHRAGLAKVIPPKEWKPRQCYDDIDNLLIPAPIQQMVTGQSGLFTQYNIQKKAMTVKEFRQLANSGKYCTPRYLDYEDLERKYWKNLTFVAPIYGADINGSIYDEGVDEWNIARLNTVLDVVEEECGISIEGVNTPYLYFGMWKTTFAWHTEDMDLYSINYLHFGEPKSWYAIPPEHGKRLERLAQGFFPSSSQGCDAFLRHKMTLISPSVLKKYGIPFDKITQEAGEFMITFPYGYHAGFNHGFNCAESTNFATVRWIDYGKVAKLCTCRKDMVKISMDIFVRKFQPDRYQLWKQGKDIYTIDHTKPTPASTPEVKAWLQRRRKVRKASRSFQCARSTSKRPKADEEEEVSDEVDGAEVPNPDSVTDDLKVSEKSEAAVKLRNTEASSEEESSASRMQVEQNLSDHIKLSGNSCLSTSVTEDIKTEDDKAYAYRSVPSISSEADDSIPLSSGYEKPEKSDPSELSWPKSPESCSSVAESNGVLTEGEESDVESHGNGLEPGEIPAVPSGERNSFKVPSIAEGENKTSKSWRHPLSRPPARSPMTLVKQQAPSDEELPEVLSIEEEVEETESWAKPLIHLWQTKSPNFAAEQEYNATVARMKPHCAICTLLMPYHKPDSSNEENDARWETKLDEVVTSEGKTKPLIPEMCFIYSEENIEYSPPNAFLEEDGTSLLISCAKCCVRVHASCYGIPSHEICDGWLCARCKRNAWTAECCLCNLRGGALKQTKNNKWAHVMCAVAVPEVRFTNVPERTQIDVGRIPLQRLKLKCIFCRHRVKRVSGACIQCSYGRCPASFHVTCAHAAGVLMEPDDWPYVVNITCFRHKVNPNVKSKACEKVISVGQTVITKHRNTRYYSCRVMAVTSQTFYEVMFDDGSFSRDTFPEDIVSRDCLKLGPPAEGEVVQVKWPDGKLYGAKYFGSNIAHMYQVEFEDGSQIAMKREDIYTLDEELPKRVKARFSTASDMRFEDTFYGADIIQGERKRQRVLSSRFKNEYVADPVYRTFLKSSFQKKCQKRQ

[3] = target: Lysine-specific demethylase 5B (Homo sapiens, UniProt Q9UGL1); experiment: Enzymatic Assay: The ability of test compounds to inhibit the activity of Jarid1B was determined in 384-well plate format under the following reaction conditions: 0.8 nM Jarid1B, 300 nM H3K4me3-biotin labeled peptide (Anaspec cat #64357), 2 μM alpha-ketoglutaric acid in assay buffer of 50 mM HEPES, pH7.3, 0.005% Brij35, 0.5 mM TCEP, 0.2 mg/ml BSA, 50 μM sodium L-ascorbate, and 2 μM ammonium iron(II) sulfate. Reaction product was determined quantitatively by TR-FRET after the addition of detection reagent Phycolink Streptavidin-allophycocyanin (Prozyme) and Europium-anti-mono- or di-methylated histone H3 lysine 4 (H3K4me1-2) antibody (PerkinElmer) in the presence of 5 mM EDTA in LANCE detection buffer (PerkinElmer) at a final concentration of 25 nM and 1 nM, respectively.The assay reaction was initiated by the following: 2 μl of the mixture of 900 nM H3K4me3-biotin labeled peptide and 6 μM alpha-ketoglutaric acid with 2 μl of 11-point serial diluted inhibitor in 3% DMSO was added to each well of the plate, followed by the addition of 2 μl of 2.4 nM Jarid1B to initiate the reaction. The reaction mixture was incubated at room temperature for 30 minutes, and terminated by the addition of 6 μl of 5 mM EDTA in LANCE detection buffer containing 50 nM Phycolink Streptavidin-allophycocyanin and 2 nM Europium-anti-H3K4me1-2 antibody.

Measured: pIC50

Sequence of Lysine-specific demethylase 5B (Q9UGL1 whole entry): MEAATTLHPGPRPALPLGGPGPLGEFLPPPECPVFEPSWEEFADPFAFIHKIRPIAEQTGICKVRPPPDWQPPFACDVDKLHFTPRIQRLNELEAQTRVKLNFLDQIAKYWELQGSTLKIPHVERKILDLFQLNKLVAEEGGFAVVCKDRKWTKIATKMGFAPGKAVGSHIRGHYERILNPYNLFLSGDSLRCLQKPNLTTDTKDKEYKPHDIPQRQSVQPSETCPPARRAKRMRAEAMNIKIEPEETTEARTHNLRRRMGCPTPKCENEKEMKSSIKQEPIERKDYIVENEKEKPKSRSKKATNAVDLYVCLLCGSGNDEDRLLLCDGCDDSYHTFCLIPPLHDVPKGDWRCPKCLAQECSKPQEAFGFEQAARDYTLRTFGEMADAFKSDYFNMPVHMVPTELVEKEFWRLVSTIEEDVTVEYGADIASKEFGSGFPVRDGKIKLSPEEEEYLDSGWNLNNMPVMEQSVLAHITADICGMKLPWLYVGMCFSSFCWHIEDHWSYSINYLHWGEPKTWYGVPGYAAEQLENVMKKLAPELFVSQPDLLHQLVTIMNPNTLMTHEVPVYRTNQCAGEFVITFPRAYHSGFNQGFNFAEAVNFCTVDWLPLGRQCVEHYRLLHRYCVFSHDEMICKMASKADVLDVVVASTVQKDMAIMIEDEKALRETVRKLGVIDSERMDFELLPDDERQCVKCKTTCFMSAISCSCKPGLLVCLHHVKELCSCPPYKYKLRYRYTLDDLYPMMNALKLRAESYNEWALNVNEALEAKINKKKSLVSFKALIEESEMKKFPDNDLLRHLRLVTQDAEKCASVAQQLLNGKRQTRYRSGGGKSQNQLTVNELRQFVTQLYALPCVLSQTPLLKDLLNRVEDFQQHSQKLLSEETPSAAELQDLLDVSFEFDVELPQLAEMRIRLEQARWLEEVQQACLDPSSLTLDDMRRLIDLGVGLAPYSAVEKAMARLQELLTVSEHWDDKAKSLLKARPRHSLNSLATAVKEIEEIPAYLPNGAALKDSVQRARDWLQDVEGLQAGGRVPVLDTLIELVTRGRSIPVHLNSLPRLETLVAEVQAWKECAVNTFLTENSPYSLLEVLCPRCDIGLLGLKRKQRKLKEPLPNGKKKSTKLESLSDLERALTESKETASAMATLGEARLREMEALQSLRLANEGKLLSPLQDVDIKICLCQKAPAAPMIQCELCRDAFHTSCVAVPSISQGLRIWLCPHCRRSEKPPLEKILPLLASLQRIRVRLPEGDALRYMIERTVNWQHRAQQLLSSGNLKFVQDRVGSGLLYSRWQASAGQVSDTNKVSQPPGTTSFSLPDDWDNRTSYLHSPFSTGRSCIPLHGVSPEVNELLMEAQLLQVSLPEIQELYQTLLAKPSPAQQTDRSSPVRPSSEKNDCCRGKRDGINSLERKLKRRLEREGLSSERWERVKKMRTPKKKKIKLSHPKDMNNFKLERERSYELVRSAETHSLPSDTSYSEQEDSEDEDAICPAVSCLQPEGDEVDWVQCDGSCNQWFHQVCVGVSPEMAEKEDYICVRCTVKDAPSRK
Sequence of Lysine-specific demethylase 5A (P29375 whole entry): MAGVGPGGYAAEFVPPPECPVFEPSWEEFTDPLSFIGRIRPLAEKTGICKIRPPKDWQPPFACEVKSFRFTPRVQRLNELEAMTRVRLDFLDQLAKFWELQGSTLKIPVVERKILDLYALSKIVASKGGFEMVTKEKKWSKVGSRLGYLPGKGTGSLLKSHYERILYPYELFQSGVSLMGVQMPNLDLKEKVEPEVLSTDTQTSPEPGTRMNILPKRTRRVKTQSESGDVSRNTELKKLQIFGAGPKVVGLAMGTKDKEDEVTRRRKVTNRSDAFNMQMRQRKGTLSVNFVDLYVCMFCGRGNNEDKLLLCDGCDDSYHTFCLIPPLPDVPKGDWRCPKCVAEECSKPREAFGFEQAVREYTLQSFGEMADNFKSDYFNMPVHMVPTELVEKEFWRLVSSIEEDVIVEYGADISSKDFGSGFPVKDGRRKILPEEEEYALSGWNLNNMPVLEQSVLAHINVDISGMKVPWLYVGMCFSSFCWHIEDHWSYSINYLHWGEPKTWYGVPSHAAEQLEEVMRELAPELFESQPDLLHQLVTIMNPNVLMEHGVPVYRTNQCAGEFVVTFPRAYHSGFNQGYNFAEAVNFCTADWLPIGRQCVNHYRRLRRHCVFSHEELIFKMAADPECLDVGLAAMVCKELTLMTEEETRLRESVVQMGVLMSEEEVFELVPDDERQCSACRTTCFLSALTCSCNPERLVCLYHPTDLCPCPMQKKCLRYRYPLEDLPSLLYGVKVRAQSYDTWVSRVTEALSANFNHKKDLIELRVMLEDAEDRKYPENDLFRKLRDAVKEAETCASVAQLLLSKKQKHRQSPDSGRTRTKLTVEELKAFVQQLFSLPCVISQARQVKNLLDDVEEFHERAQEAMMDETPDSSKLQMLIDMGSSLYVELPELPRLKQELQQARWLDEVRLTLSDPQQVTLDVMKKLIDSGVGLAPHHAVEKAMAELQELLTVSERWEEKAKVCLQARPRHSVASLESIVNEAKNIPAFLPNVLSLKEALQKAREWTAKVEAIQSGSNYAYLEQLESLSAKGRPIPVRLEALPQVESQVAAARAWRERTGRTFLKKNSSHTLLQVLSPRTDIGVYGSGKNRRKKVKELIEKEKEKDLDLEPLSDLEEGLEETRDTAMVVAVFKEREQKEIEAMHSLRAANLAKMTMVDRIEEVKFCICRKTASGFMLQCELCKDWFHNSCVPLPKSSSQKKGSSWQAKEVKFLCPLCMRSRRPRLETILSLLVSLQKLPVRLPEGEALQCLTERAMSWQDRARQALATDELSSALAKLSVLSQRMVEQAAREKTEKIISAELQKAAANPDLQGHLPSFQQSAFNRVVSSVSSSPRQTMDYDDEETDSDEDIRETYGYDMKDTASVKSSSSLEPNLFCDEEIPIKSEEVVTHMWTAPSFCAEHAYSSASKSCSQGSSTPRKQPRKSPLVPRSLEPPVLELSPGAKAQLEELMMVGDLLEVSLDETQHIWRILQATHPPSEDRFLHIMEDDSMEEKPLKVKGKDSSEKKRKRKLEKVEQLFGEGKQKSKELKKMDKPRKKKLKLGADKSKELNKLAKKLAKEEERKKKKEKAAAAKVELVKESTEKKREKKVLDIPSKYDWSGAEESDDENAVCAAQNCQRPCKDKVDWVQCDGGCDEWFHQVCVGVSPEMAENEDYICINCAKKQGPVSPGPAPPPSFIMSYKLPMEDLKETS

CC1(C)CCN(C(=O)c2cc3nccc(C(=O)O)c3[nH]2)CC1
> 7.00: all assays above
